According to PubChem BioAssay AID248 (DTP/NCI, 2004):
Toxic doses and inconclusive results are not listed. Rule as the data show it: active = T/C of 150% or more; inactive = T/C below 125%.

System: L1210 leukemia ip in BDF1 mice, survival T/C
Assay: NCI In Vivo Anticancer Drug Screen. Data for tumor model L1210 Leukemia (intraperitoneal) in B6D2F1 (BDF1) mice
Settings: endpoint: mean survival time, higher = longer survival
Outline: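 Transplantable tumor model; survival measured in treated vs vehicle control mice. Value = treated/control.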

[1] = dose: 50.0 mg/kg/injection, schedule: Q01DX001 (ip), vehicle: carboxymethylcellulose (CMC)
[2] = dose: 100.0 mg/kg/injection, schedule: Q01DX001 (ip), vehicle: saline
[3] = dose: 200.0 mg/kg/injection, schedule: Q01DX001 (ip), vehicle: saline
[4] = dose: 400.0 mg/kg/injection, schedule: Q01DX001 (ip), vehicle: saline
[5] = dose: 100.0 mg/kg/injection, schedule: Q04DX003 (ip), vehicle: Klucel (hydroxypropylcellulose) (HPC)
[6] = dose: 200.0 mg/kg/injection, schedule: Q04DX003 (ip), vehicle: Klucel (hydroxypropylcellulose) (HPC)
[7] = dose: 400.0 mg/kg/injection, schedule: Q04DX003 (ip), vehicle: Klucel (hydroxypropylcellulose) (HPC)
[8] = dose: 100.0 mg/kg/injection, schedule: Q01DX001 (ip), vehicle: carboxymethylcellulose (CMC)
[9] = dose: 200.0 mg/kg/injection, schedule: Q01DX001 (ip), vehicle: carboxymethylcellulose (CMC)
[10] = dose: 400.0 mg/kg/injection, schedule: Q01DX001 (ip), vehicle: carboxymethylcellulose (CMC)
[11] = dose: 100.0 mg/kg/injection, schedule: Q04DX002 (ip), vehicle: Klucel (hydroxypropylcellulose) (HPC)
[12] = dose: 200.0 mg/kg/injection, schedule: Q04DX002 (ip), vehicle: Klucel (hydroxypropylcellulose) (HPC)
[13] = dose: 100.0 mg/kg/injection, schedule: Q01DX001 (ip), vehicle: other
[14] = dose: 200.0 mg/kg/injection, schedule: Q01DX001 (ip), vehicle: other
[15] = dose: 400.0 mg/kg/injection, schedule: Q01DX001 (ip), vehicle: other

Measured: T/C

O=C1C(=O)c2ccccc2C(O)=C1c1ccccc1
inactive: [1] 114 % of control

O=S(=O)(c1ccccc1)c1ccc(O)cc1
inactive: dose: 50.0 mg/kg/injection, schedule: Q01DX001 (ip), vehicle: saline 95 % of control | [2] 89 % of control | [3] 108 % of control | [4] 101 % of control

CCOC(=O)CN1C(C)C1C(C)C (configuration not stated)
inactive: [5] 114 % of control | [6] 100 % of control | [7] 104 % of control

O=C(/C=C(\OB(F)F)c1ccccc1)c1ccccc1
inactive: [1] 102 % of control | [8] 94 % of control | [9] 100 % of control | [10] 90 % of control

NC(=O)c1ccc[n+](CCc2c[nH]c3ccccc23)c1
inactive: dose: 75.0 mg/kg/injection, schedule: Q01DX001 (ip), vehicle: saline with Tween-80 94 % of control | dose: 150.0 mg/kg/injection, schedule: Q01DX001 (ip), vehicle: saline with Tween-80 101 % of control | dose: 300.0 mg/kg/injection, schedule: Q01DX001 (ip), vehicle: saline with Tween-80 98 % of control

COc1cc(C)ccc1-c1c(C(=O)O)cccc1[N+](=O)[O-]
inactive: [5] 93 % of control | [6] 95 % of control | [7] 90 % of control

Oc1ccc(Cl)cc1C1N(Cc2ccc(N(CCCl)CCCl)cc2Cl)CCCN1Cc1ccc(N(CCCl)CCCl)cc1Cl
inactive: [1] 113 % of control | [8] 96 % of control | [9] 105 % of control | [10] 96 % of control

CCCCCCCCCCCC[n+]1ccc(C)cc1C
inactive: dose: 0.01 mg/kg/injection, schedule: Q01DX015 (ip), vehicle: saline 92 % of control | dose: 0.02 mg/kg/injection, schedule: Q01DX015 (ip), vehicle: saline 98 % of control | dose: 0.04 mg/kg/injection, schedule: Q01DX015 (ip), vehicle: saline 97 % of control | dose: 0.08 mg/kg/injection, schedule: Q01DX015 (ip), vehicle: saline 98 % of control | dose: 0.1 mg/kg/injection, schedule: Q01DX009 (ip), vehicle: saline 97 % of control | dose: 0.1 mg/kg/injection, schedule: Q04DX003 (ip), vehicle: saline 102 % of control | dose: 0.2 mg/kg/injection, schedule: Q01DX009 (ip), vehicle: saline 92 % of control | dose: 0.2 mg/kg/injection, schedule: Q04DX003 (ip), vehicle: saline 97 % of control | dose: 0.4 mg/kg/injection, schedule: Q01DX009 (ip), vehicle: saline 101 % of control | dose: 0.4 mg/kg/injection, schedule: Q04DX003 (ip), vehicle: saline 94 % of control | dose: 0.59 mg/kg/injection, schedule: Q01DX009 (ip), vehicle: saline 91 % of control

Nc1c(Br)cccc1C(=O)O
inactive: [2] 104 % of control | [3] 102 % of control | [4] 101 % of control

O=C(COc1cc(Cl)c(Cl)cc1Cl)Nc1ccc(Cl)cc1
inactive: [11] 103 % of control | [12] 106 % of control | dose: 400.0 mg/kg/injection, schedule: Q04DX002 (ip), vehicle: Klucel (hydroxypropylcellulose) (HPC) 103 % of control

O=S1c2ccccc2S(=O)c2ccccc21 (configuration not stated)
inactive: dose: 100.0 mg/kg/injection, schedule: Q04DX003 (ip), vehicle: saline with Tween-80 96 % of control | dose: 200.0 mg/kg/injection, schedule: Q04DX003 (ip), vehicle: saline with Tween-80 91 % of control | dose: 400.0 mg/kg/injection, schedule: Q04DX003 (ip), vehicle: saline with Tween-80 89 % of control

O=C(COc1ccc(Br)cc1Br)OCCCl
inactive: [2] 100 % of control | [3] 117 % of control | [4] 103 % of control

COC(=O)C(COC1OC(COC(C)=O)C(OC(C)=O)C(OC(C)=O)C1NC(C)=O)NC(=O)OCc1ccccc1 (configuration not stated)
inactive: dose: 50.0 mg/kg/injection, schedule: Q04DX002 (ip), vehicle: Klucel (hydroxypropylcellulose) (HPC) 91 % of control | [11] 98 % of control | [12] 88 % of control

CCC/C(=N\NC(N)=O)C(OC)OC
inactive: [13] 94 % of control | [14] 105 % of control | [15] 92 % of control

CNC(=S)N(N)c1ccccc1
inactive: dose: 100.0 mg/kg/injection, schedule: Q01DX009 (ip), vehicle: Klucel (hydroxypropylcellulose) (HPC) 104 % of control | [5] 93 % of control | dose: 200.0 mg/kg/injection, schedule: Q01DX009 (ip), vehicle: Klucel (hydroxypropylcellulose) (HPC) 101 % of control | [6] 103 % of control | [7] 101 % of control

CCC#CC(O)(C(=O)OCC)C1CCCCC1 (configuration not stated)
inactive: [13] 104 % of control | [14] 96 % of control | [15] 104 % of control

CCCCOC(=O)C=O
inactive: dose: 50.0 mg/kg/injection, schedule: Q01DX009 (ip), vehicle: saline with Tween-80 106 % of control | dose: 100.0 mg/kg/injection, schedule: Q01DX009 (ip), vehicle: saline with Tween-80 97 % of control

CC1(C)CC(N=Cc2ccccc2O)CC(C)(C)N1O.CC1(C)CC(N=Cc2ccccc2O)CC(C)(C)N1O.[Cu]
inactive: dose: 12.5 mg/kg/injection, schedule: Q04DX003 (ip), vehicle: saline 89 % of control | dose: 25.0 mg/kg/injection, schedule: Q04DX003 (ip), vehicle: saline 101 % of control | dose: 50.0 mg/kg/injection, schedule: Q04DX003 (ip), vehicle: saline 101 % of control

O=C(COc1ccc(Cl)cc1)NNc1ccccc1
inactive: dose: 100.0 mg/kg/injection, schedule: Q04DX002 (ip), vehicle: saline 100 % of control | dose: 200.0 mg/kg/injection, schedule: Q04DX002 (ip), vehicle: saline 96 % of control | dose: 400.0 mg/kg/injection, schedule: Q04DX002 (ip), vehicle: saline 114 % of control

c1ccc2c3nc4ccccc4c-3scc2c1
inactive: dose: 100.0 mg/kg/injection, schedule: Q01DX001 (ip), vehicle: acetone 100 % of control | dose: 200.0 mg/kg/injection, schedule: Q01DX001 (ip), vehicle: acetone 103 % of control

c1ccc(C[N+]23CCN(CC2)CC3)cc1
inactive: dose: 12.5 mg/kg/injection, schedule: Q01DX009 (ip), vehicle: saline 119 % of control | dose: 25.0 mg/kg/injection, schedule: Q01DX009 (ip), vehicle: saline 109 % of control | dose: 50.0 mg/kg/injection, schedule: Q01DX009 (ip), vehicle: saline 108 % of control
